According to ChEMBL document CHEMBL1201861, “Genomics of Drug Sensitity in Cancer screening data, Wellcome Trust Sanger Institute”:
Values joined by “and” are separate entries in the source; they are usually repeats but may differ in a detail not shown here. Equal entries are not always repeated.

How the values were obtained:
Assay in all cases: cells
[1] = test system: TGBC24TKB; assay type: functional, cell-based, Homo sapiens;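 further: growth inhibition of human TGBC24TKB cells, read out with a cell viability assay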
Description: SANGER: Inhibition of human TGBC24TKB cell growth in a cell viability assay.

[2] = test system: C3A; assay type: functional, cell-based, Homo sapiens;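 further: growth inhibition of C3A human cells, quantified with a cell viability readout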
Description: SANGER: Inhibition of human C3A cell growth in a cell viability assay.

[3] = test system: IGROV-1; assay type: functional, cell-based, Homo sapiens;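 further: reduction of IGROV-1 cell growth, read out with a viability assay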
Description: SANGER: Inhibition of human IGROV-1 cell growth in a cell viability assay.

[4] = test system: C-33-A; assay type: functional, cell-based, Homo sapiens;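 further: cell viability assay measuring growth inhibition of C-33-A cells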
Description: SANGER: Inhibition of human C-33-A cell growth in a cell viability assay.

[5] = test system: HO-1-N-1; assay type: functional, cell-based, Homo sapiens;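 further: growth inhibition of human HO-1-N-1 cells, read out with a cell viability assay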
Description: SANGER: Inhibition of human HO-1-N-1 cell growth in a cell viability assay.

[6] = test system: BB30-HNC; assay type: functional, cell-based, Homo sapiens;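 further: growth inhibition of the cultured cell line, read out by a cell viability assay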
Description: SANGER: Inhibition of human BB30-HNC cell growth in a cell viability assay.

[7] = test system: J-RT3-T3-5; assay type: functional, cell-based; conditions: Homo sapiens;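 further: cell viability assay measuring growth inhibition of human J-RT3-T3-5 cells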
Description: SANGER: Inhibition of human J-RT3-T3-5 cell growth in a cell viability assay.

[8] = test system: LXF-289 cell line; assay type: functional, cell-based, Homo sapiens
Description: SANGER: Inhibition of human LXF-289 cell growth in a cell viability assay.

[9] = test system: MV4-11; assay type: functional, cell-based, MV-4-11; conditions: Homo sapiens;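 further: cell viability readout measuring growth inhibition of human MV-4-11 cells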
Description: SANGER: Inhibition of human MV-4-11 cell growth in a cell viability assay.

[10] = test system: HCC1395; assay type: functional, cell-based, Homo sapiens;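 further: growth inhibition of HCC1395 cells, read out by a cell viability assay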
Description: SANGER: Inhibition of human HCC1395 cell growth in a cell viability assay.

[11] = test system: A2780; assay type: functional, cell-based, Homo sapiens;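 further: growth inhibition of A2780 cells, read out with a cell viability assay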
Description: SANGER: Inhibition of human A2780 cell growth in a cell viability assay.

[12] = test system: MMAC-SF; assay type: functional, cell-based, Homo sapiens;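 further: growth inhibition of human MMAC-SF cells, read out with a cell viability assay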
Description: SANGER: Inhibition of human MMAC-SF cell growth in a cell viability assay.

[13] = test system: OCUB-M; assay type: functional, cell-based, Homo sapiens;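 further: growth inhibition of the cancer cell line, read out through a cell viability assay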
Description: SANGER: Inhibition of human OCUB-M cell growth in a cell viability assay.

[14] = test system: SW872; assay type: functional, cell-based, Homo sapiens;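 further: growth inhibition of SW872 cells, read out by a viability assay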
Description: SANGER: Inhibition of human SW872 cell growth in a cell viability assay.

[15] = test system: SW1463; assay type: functional, cell-based, Homo sapiens;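 further: growth inhibition of SW1463 cells, determined with a cell viability assay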
Description: SANGER: Inhibition of human SW1463 cell growth in a cell viability assay.

[16] = test system: CAL-51; assay type: functional, cell-based, Homo sapiens;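 further: human CAL-51 cell line, growth inhibition read out via a cell viability assay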
Description: SANGER: Inhibition of human CAL-51 cell growth in a cell viability assay.

[17] = test system: DJM-1; assay type: functional, cell-based, Homo sapiens;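 further: growth inhibition of human DJM-1 cells, read out by a cell viability assay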
Description: SANGER: Inhibition of human DJM-1 cell growth in a cell viability assay.

[18] = test system: CWR22R; assay type: functional, cell-based, Homo sapiens;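 further: growth inhibition of 22Rv1 cells, read out with a cell viability assay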
Description: SANGER: Inhibition of human 22RV1 cell growth in a cell viability assay.

[19] = test system: HT-1376; assay type: functional, cell-based, Homo sapiens
Description: SANGER: Inhibition of human HT-1376 cell growth in a cell viability assay.

[20] = test system: KYSE-70 cell line; assay type: functional, cell-based, Homo sapiens;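 further: cell viability assay read-out, with IC50 expressing suppression of KYSE-70 cell growth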
Description: SANGER: Inhibition of human KYSE-70 cell growth in a cell viability assay.

[21] = test system: SK-N-DZ; assay type: functional, cell-based, Homo sapiens;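 further: growth inhibition of the cancer cell line, read out through a viability assay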
Description: SANGER: Inhibition of human SK-N-DZ cell growth in a cell viability assay.

[22] = test system: K562; assay type: functional, cell-based; conditions: Homo sapiens
Description: SANGER: Inhibition of human K-562 cell growth in a cell viability assay.

[23] = test system: L-363; assay type: functional, cell-based; conditions: Homo sapiens
Description: SANGER: Inhibition of human L-363 cell growth in a cell viability assay.

[24] = test system: Ramos-2G6-4C10; assay type: functional, cell-based; conditions: Homo sapiens;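 further: growth inhibition of the cell line, measured by a cell viability read-out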
Description: SANGER: Inhibition of human Ramos-2G6-4C10 cell growth in a cell viability assay.

[25] = test system: D-502MG; assay type: functional, cell-based, Homo sapiens
Description: SANGER: Inhibition of human D-502MG cell growth in a cell viability assay.

[26] = test system: SK-MEL-24; assay type: functional, cell-based; conditions: Homo sapiens;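 further: growth inhibition read out by a cell viability assay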
Description: SANGER: Inhibition of human SK-MEL-24 cell growth in a cell viability assay.

[27] = test system: KP-4; assay type: functional, cell-based, Homo sapiens; conditions: read-out: IC50;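 further: human KP-4 cells, with growth inhibition read out through a cell viability assay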
Description: SANGER: Inhibition of human KP-4 cell growth in a cell viability assay.

[28] = test system: OCI-AML2; assay type: functional, cell-based; conditions: Homo sapiens;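 further: growth inhibition of OCI-AML2 cells, read out with a cell viability assay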
Description: SANGER: Inhibition of human OCI-AML2 cell growth in a cell viability assay.

[29] = test system: COLO-684; assay type: functional, cell-based; conditions: Homo sapiens
Description: SANGER: Inhibition of human COLO-684 cell growth in a cell viability assay.

[30] = test system: CP50-MEL-B; assay type: functional, cell-based, Homo sapiens;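 further: growth inhibition of the human cell line, measured with a cell viability read-out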
Description: SANGER: Inhibition of human CP50-MEL-B cell growth in a cell viability assay.

[31] = test system: NCI-H2087; assay type: functional, cell-based, Homo sapiens;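 further: growth inhibition determined with a cell viability readout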
Description: SANGER: Inhibition of human NCI-H2087 cell growth in a cell viability assay.

[32] = test system: NCI-H650; assay type: functional, cell-based, Homo sapiens;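 further: growth inhibition of NCI-H650 cells, read out by a viability assay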
Description: SANGER: Inhibition of human NCI-H650 cell growth in a cell viability assay.

[33] = test system: UMC-11; assay type: functional, cell-based, Homo sapiens;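 further: growth inhibition of UMC-11 cells, read out with a cell viability assay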
Description: SANGER: Inhibition of human UMC-11 cell growth in a cell viability assay.

[34] = test system: SNU1; assay type: functional, cell-based; conditions: Homo sapiens;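 further: growth inhibition of human NCI-SNU-1 cells, measured with a cell viability assay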
Description: SANGER: Inhibition of human NCI-SNU-1 cell growth in a cell viability assay.

[35] = test system: KNS-42; assay type: functional, cell-based, Homo sapiens;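 further: growth inhibition of KNS-42 cells, read out with a cell viability assay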
Description: SANGER: Inhibition of human KNS-42 cell growth in a cell viability assay.

[36] = test system: SK-N-AS; assay type: functional, cell-based, Homo sapiens;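 further: growth inhibition of human SK-N-AS cells, measured with a cell viability assay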
Description: SANGER: Inhibition of human SK-N-AS cell growth in a cell viability assay.

[37] = test system: EM-2; assay type: functional, cell-based; conditions: Homo sapiens;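 further: growth inhibition of EM-2 cells, read out with a cell viability assay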
Description: SANGER: Inhibition of human EM-2 cell growth in a cell viability assay.

[38] = test system: NCI-H2452; assay type: functional, cell-based, Homo sapiens;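 further: growth inhibition of NCI-H2452 cells, read out with a cell viability assay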
Description: SANGER: Inhibition of human NCI-H2452 cell growth in a cell viability assay.

[39] = test system: S-117; assay type: functional, cell-based, Homo sapiens
Description: SANGER: Inhibition of human S-117 cell growth in a cell viability assay.

[40] = test system: BXPC-3; assay type: functional, cell-based, Homo sapiens;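 further: growth inhibition of human BxPC-3 cells, read out by a cell viability assay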
Description: SANGER: Inhibition of human BxPC-3 cell growth in a cell viability assay.

[41] = test system: NB17; assay type: functional, cell-based; conditions: Homo sapiens;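 further: growth inhibition of NB17 cells, read out with a cell viability assay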
Description: SANGER: Inhibition of human NB17 cell growth in a cell viability assay.

[42] = test system: DSH1; assay type: functional, cell-based, Homo sapiens;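 further: growth inhibition of human DSH1 cells, measured with a cell viability readout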
Description: SANGER: Inhibition of human DSH1 cell growth in a cell viability assay.

[43] = test system: RCM-1; assay type: functional, cell-based, Homo sapiens;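 further: growth inhibition of the RCM-1 line, determined with a cell viability readout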
Description: SANGER: Inhibition of human RCM-1 cell growth in a cell viability assay.

[44] = test system: DMS-79; assay type: functional, cell-based; conditions: Homo sapiens;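 further: growth inhibition measured with a cell viability assay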
Description: SANGER: Inhibition of human DMS-79 cell growth in a cell viability assay.

[45] = test system: GAMG; assay type: functional, cell-based, Homo sapiens;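 further: cell growth inhibition measured by a viability assay in the GAMG human cell line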
Description: SANGER: Inhibition of human GAMG cell growth in a cell viability assay.

[46] = test system: RPMI-2650; assay type: functional, cell-based, Homo sapiens
Description: SANGER: Inhibition of human RPMI-2650 cell growth in a cell viability assay.

[47] = test system: NCI-H2126; assay type: functional, cell-based, Homo sapiens;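 further: growth inhibition of the cancer cell line, determined with a cell viability readout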
Description: SANGER: Inhibition of human NCI-H2126 cell growth in a cell viability assay.

[48] = test system: HEC-1; assay type: functional, cell-based, Homo sapiens;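 further: growth inhibition of the cell line, read out with a cell viability assay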
Description: SANGER: Inhibition of human HEC-1 cell growth in a cell viability assay.

[49] = test system: A3-KAW; assay type: functional, cell-based; conditions: Homo sapiens;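 further: growth inhibition of human A3-KAW cells, read out with a cell viability assay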
Description: SANGER: Inhibition of human A3-KAW cell growth in a cell viability assay.

[50] = test system: HOS; assay type: functional, cell-based, Homo sapiens;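 further: growth inhibition of human HOS cells, read out with a cell viability assay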
Description: SANGER: Inhibition of human HOS cell growth in a cell viability assay.

[51] = test system: AU565; assay type: functional, cell-based, Homo sapiens;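 further: cell viability assay measuring growth inhibition of human AU565 cells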
Description: SANGER: Inhibition of human AU565 cell growth in a cell viability assay.

[52] = test system: MDA-MB-415; assay type: functional, cell-based; conditions: Homo sapiens

Measured: IC50

Cc1cc([C@@H](C)Nc2ccccc2C(=O)O)c2nc(N3CCOCC3)cc(=O)n2c1 [AZD-6482]
1.97 µM: [3]; Homo sapiens, IGROV-1
2.2 µM: [29]
> 5.12 µM and 3.09 µM: [14]; sw872
1.55 µM and 4.06 µM: [8]; lxf-289
1.58 µM and 0.728 µM: [13]; ocub-m
> 5.12 µM and 3.45 µM: [40]; bxpc-3
> 5.12 µM: [1]; tgbc24tkb | [2]; c3a | [4]; c-33-a | [5]; ho-1-n-1 | [6]; bb30-hnc | [7] | [10]; Homo sapiens, HCC1395 | [10]; hcc1395 | [12]; mmac-sf | [15]; sw1463 | [16]; cal-51 | [17]; djm-1 | [18]; Homo sapiens, 22Rv1 | [18]; cwr22r | [19]; ht-1376 | [20]; kyse-70 | [22] | [23] | [24] | [25]; d-502mg | [26] | [27]; kp-4 | [28] | [30]; cp50-mel-b | [31]; Homo sapiens, NCI-H2087 | [31]; nci-h2087 | [33]; Homo sapiens, UMC-11 | [33]; umc-11 | [34] | [35]; kns-42 | [36]; Homo sapiens, SK-N-AS | [36]; sk-n-as | [37] | [38]; nci-h2452 | [39]; s-117 | [41] | [42]; Homo sapiens, DSH1 | [42]; dsh1 | [43]; rcm-1 | [44] | [46]; Homo sapiens, RPMI-2650 | [46]; rpmi-2650 | [47]; nci-h2126 | [48]; Homo sapiens, HEC-1 | [48]; hec-1 | [49] | [50]; hos | [51]; Homo sapiens, AU565 | [51]; au565
> 5.12 µM and 2.32 µM: [21]; sk-n-dz
> 5.12 µM and 2.56 µM: [11]; a2780
2.66 µM: [9]
2.55 µM: [3]; igrov-1
4.43 µM and 1.01 µM: [45]; gamg
4.89 µM: [6]; Homo sapiens, BB30-HNC
1.3 µM and > 5.12 µM: [32]; nci-h650

CN(Cc1cnc2nc(N)nc(N)c2n1)c1ccc(C(=O)N[C@@H](CCC(=O)O)C(=O)O)cc1 [METHOTREXATE]
0.00751 µM: [34]
0.0269 µM: [24]
0.0613 µM: [51]; Homo sapiens, AU565
0.00892 µM: [49]
0.0143 µM: [23]
0.0943 µM: [6]; Homo sapiens, BB30-HNC
0.0375 µM: [29]
> 0.2 µM: [1]; Homo sapiens, TGBC24TKB | [2]; Homo sapiens, C3A | [4]; Homo sapiens, C-33-A | [5]; Homo sapiens, HO-1-N-1 | [52] | [8]; Homo sapiens, LXF-289 | [10]; Homo sapiens, HCC1395 | [12]; Homo sapiens, MMAC-SF | [13]; Homo sapiens, OCUB-M | [14]; Homo sapiens, SW872 | [15]; Homo sapiens, SW1463 | [16]; Homo sapiens, CAL-51 | [17]; Homo sapiens, DJM-1 | [18]; Homo sapiens, 22Rv1 | [19]; Homo sapiens, HT-1376 | [20]; Homo sapiens, KYSE-70 | [21]; Homo sapiens, SK-N-DZ | [22] | [25]; Homo sapiens, D-502MG | [26] | [27]; Homo sapiens, KP-4 | [28] | [30]; Homo sapiens, CP50-MEL-B | [31]; Homo sapiens, NCI-H2087 | [32]; Homo sapiens, NCI-H650 | [33]; Homo sapiens, UMC-11 | [35]; Homo sapiens, KNS-42 | [36]; Homo sapiens, SK-N-AS | [38]; Homo sapiens, NCI-H2452 | [39]; Homo sapiens, S-117 | [40]; Homo sapiens, BXPC-3 | [41] | [42]; Homo sapiens, DSH1 | [43]; Homo sapiens, RCM-1 | [44] | [45]; Homo sapiens, GAMG | [46]; Homo sapiens, RPMI-2650 | [47]; Homo sapiens, NCI-H2126 | [48]; Homo sapiens, HEC-1 | [50]; Homo sapiens, HOS
0.0545 µM: [11]; Homo sapiens, A2780
0.0194 µM: [7] | [9]
0.0571 µM: [37]

O=C(c1cc(Cc2n[nH]c(=O)c3ccccc23)ccc1F)N1CCN(C(=O)C2CC2)CC1 [OLAPARIB]
3.52 µM: [29]
> 5 µM: [1]; Homo sapiens, TGBC24TKB | [2]; Homo sapiens, C3A | [4]; Homo sapiens, C-33-A | [5]; Homo sapiens, HO-1-N-1 | [6]; Homo sapiens, BB30-HNC | [52] | [7] | [8]; Homo sapiens, LXF-289 | [10]; Homo sapiens, HCC1395 | [11]; Homo sapiens, A2780 | [12]; Homo sapiens, MMAC-SF | [13]; Homo sapiens, OCUB-M | [14]; Homo sapiens, SW872 | [15]; Homo sapiens, SW1463 | [16]; Homo sapiens, CAL-51 | [17]; Homo sapiens, DJM-1 | [18]; Homo sapiens, 22Rv1 | [19]; Homo sapiens, HT-1376 | [20]; Homo sapiens, KYSE-70 | [21]; Homo sapiens, SK-N-DZ | [22] | [23] | [24] | [25]; Homo sapiens, D-502MG | [26] | [27]; Homo sapiens, KP-4 | [28] | [30]; Homo sapiens, CP50-MEL-B | [31]; Homo sapiens, NCI-H2087 | [32]; Homo sapiens, NCI-H650 | [33]; Homo sapiens, UMC-11 | [34] | [35]; Homo sapiens, KNS-42 | [36]; Homo sapiens, SK-N-AS | [37] | [38]; Homo sapiens, NCI-H2452 | [39]; Homo sapiens, S-117 | [40]; Homo sapiens, BXPC-3 | [41] | [42]; Homo sapiens, DSH1 | [43]; Homo sapiens, RCM-1 | [44] | [45]; Homo sapiens, GAMG | [46]; Homo sapiens, RPMI-2650 | [47]; Homo sapiens, NCI-H2126 | [48]; Homo sapiens, HEC-1 | [49] | [50]; Homo sapiens, HOS | [51]; Homo sapiens, AU565
4.13 µM: [9]

Cn1cc(C2=C(c3ccc(Cl)cc3Cl)C(=O)NC2=O)c2ccccc21 [SB-216763]
6.65 µM: [45]; Homo sapiens, GAMG
2.7 µM: [9]
> 10 µM: [1]; Homo sapiens, TGBC24TKB | [2]; Homo sapiens, C3A | [3]; Homo sapiens, IGROV-1 | [4]; Homo sapiens, C-33-A | [5]; Homo sapiens, HO-1-N-1 | [6]; Homo sapiens, BB30-HNC | [7] | [8]; Homo sapiens, LXF-289 | [10]; Homo sapiens, HCC1395 | [11]; Homo sapiens, A2780 | [12]; Homo sapiens, MMAC-SF | [13]; Homo sapiens, OCUB-M | [14]; Homo sapiens, SW872 | [15]; Homo sapiens, SW1463 | [16]; Homo sapiens, CAL-51 | [17]; Homo sapiens, DJM-1 | [18]; Homo sapiens, 22Rv1 | [19]; Homo sapiens, HT-1376 | [20]; Homo sapiens, KYSE-70 | [21]; Homo sapiens, SK-N-DZ | [22] | [23] | [24] | [25]; Homo sapiens, D-502MG | [26] | [27]; Homo sapiens, KP-4 | [28] | [29] | [30]; Homo sapiens, CP50-MEL-B | [31]; Homo sapiens, NCI-H2087 | [32]; Homo sapiens, NCI-H650 | [33]; Homo sapiens, UMC-11 | [34] | [35]; Homo sapiens, KNS-42 | [36]; Homo sapiens, SK-N-AS | [37] | [38]; Homo sapiens, NCI-H2452 | [39]; Homo sapiens, S-117 | [40]; Homo sapiens, BXPC-3 | [41] | [42]; Homo sapiens, DSH1 | [43]; Homo sapiens, RCM-1 | [44] | [46]; Homo sapiens, RPMI-2650 | [47]; Homo sapiens, NCI-H2126 | [48]; Homo sapiens, HEC-1 | [49] | [50]; Homo sapiens, HOS | [51]; Homo sapiens, AU565
